Laboratory results published in PMC7496931, “Activation of Sirtuin 2 Inhibitors Employing Photoswitchable Geometry and Aqueous Solubility” (Chemmedchem, 2020).

Key:
[1] = UV/Vis spectra and half-life of thermal Z→E isomerization; assay type: physicochemical; design: k of thermal Z→E isomerization (non-linear regression): unit not given here; conditions: for λΔ/max absorption maximum at thermal equilibrium: 50 μM in DMSO/assay buffer; for k of thermal Z→E isomerization (non-linear regression): 50 μM
Method: (§1) Photochemistry: All photoisomerization experiments were conducted under ruby light of 630 nm and total exclusion of daylight. Illumination was executed using a Bio‐Link 254 Crosslinker from Vilber‐Lourmat equipped with six Vilber‐Lourmat T8‐L lamps (8 W, 365 nm). Visible light radiation of 630 nm (ruby) and 452 nm (blue) was derived from a Paulmann FlexLED 3D strip. All compounds were irradiated in solution using spectrophotometric grade solvents. Photoisomerization and UV/Vis‐spectra measurement was conducted in quartz glass cuvettes (114‐QS, Hellma Analytics) at room temperature.
UV/Vis Spectra and Half-Life of Thermal Isomerization
The half-life of the thermal Z→E isomerization after 5 minutes of 365 nm irradiation was determined by UV/Vis-spectroscopy. Therefore, solutions of the respective compounds (50 µM) in 5%, 50% or 90% DMSO in enzyme assay buffer (v/v) were prepared. An initial spectrum of the thermal equilibrium was recorded. After 5 minutes of irradiation with 365 nm the increase of absorbance at the thermal equilibrium maximum (λ∆max) was recorded as exemplified by compound 15c (Figure S3). Absorbance at λ = λ ∆max was plotted as a function of time. Non-linear regression yielded the half-life of the thermal Z→E isomerization (Table S1). For extrapolation of the reaction kinetics, the plateau value was set to the initial absorbance at λ=λ∆max. The following equation was used for non-linear regression:
y = (y0 − Plateau)e−kx + Plateau
Figure S3: Left: UV-Vis spectrum of 15c (50 µM) in assay buffer (5% DMSO, v/v) at the thermal equilibrium (∆) and the photostationary state (PSS) after UV irradiation (365 nm). Right:
Absorbance of 15c (50 µm) in assay buffer (5% DMSO, v/v) at λ∆max = 328 nm after 5 minutes of UV (365 nm) irradiation.
(1 picture or pasted object on this page, not shown here)

[2] = Photoisomer distribution (PSD) by HPLC-ELSD; assay type: physicochemical; conditions: for E/Z [%] PSD @ 365 nm / PSD after 365 nm radiation, share of the Z isomer: after 365 nm irradiation; for E/Z [%] PSD @ 365 nm / E/Z [%] PSD @ 452 nm: HPLC in MeOH/water, ELSD; for E/Z [%] PSD @ 452 nm: after 452 nm irradiation
Method: as §1

[3] = system: urinary bladder cancer cell line RT‐4; assay: Cell-based activity assay (western blot of acetylation levels); design: species or system human; conditions: RT-4 cells, 50 μM, 24 h, compounds irradiated (365 nm) prior to incubation
Method: Reductive stability of 15 c, 15 f and 20 a in the presence of the cellular reductant glutathione (5 mM) was confirmed by HPLC analysis (Figure S5, Table S2). For the cell‐based activity assay, we illuminated the compounds solved in DMSO with UV light (365 nm) prior to incubation with the cells. […] As expected, 15 c and 15 f increased the levels of acetylated lysines H3K18 and H3K56, which are both affirmed substrates of Sirt2. In addition, we found H4K8 hyperacetylation even though this site is usually not affected by sirtuin catalysed deacetylation, indicating a further mode of action. […] In Figure 6, we show the relative results, whereby the acetylation product was related to total target protein and to the vehicle control. Again, we found an increase in acetylated histones induced by 15 c and 15 f which proves activity of these two compounds in living cells.
Figure 6 Relative acetylation levels of protein targets after incubation with compounds at 50 μM for 24 h in urinary bladder cancer cell line RT‐4 (mean of n=2). […]
Cell-Based Activity Assay
To qualify inhibitory activity of compounds on sirtuins we used the western blot technique.
Therefore, we used precast “Mini-Protean TGX Stain-Free Gels” and corresponding “Trans-Blot Turbo Transfer Pack Mini” PVDF membranes (Biorad, Germany). For sample preparation, […]
Sirt2 in our cell line stock (Data not shown), obtained from “Deutsche Sammlung von Mikroorganismen und Zellkulturen” (DSMZ), Germany. Cells were grown in RPMI 1640 cell medium supplemented with 10% fetal bovine serum and 1% penicillin/streptomycin purchased from PAN Biotec, Germany and stored in a humidified incubator at 37 °C with 5% CO2 atmosphere. For sample preparation, cells were harvested with Trypsin/EDTA and counted in a Beckman’s Coulter Counter. In six well plates, […] were seeded out in 3 mL medium and let allow to attach for 24 h. Stock solutions of compounds (1000-fold) were prepared with DMSO and illuminated with UV light (365 nm) for 5 min. Then, cells were exposed to compounds at a final concentration of 50 µM and incubated for 24 h. Cells were detached with Trypsin/EDTA and washed with phosphate buffered saline (PBS) by centrifugation at 500 g for 5 min and resuspended in PBS. Cell pellets were lysed with a lysis buffer containing Tris […]
and freshly added 1% protease inhibitor cocktail (Sigma Aldrich, Germany) on ice, followed by sonification for 30 minutes. The protein concentration was determined by the Bradford method against bovine serum albumin (BSA) as standard. Each slot of the precast gel was loaded with 30 µg protein followed by an electrophoretic separation and a transfer onto PVDF membranes.
Blots were blocked with 10% non-fat milk powder in Tris-buffered saline containing 20 mM Tris, 145 mM NaCl and Tween 0.5% (TBST) for 2 h and incubated with primary antibody in 1:1000 dilutions (in TBST and 1% BSA) over night at 4 °C. After washing procedure, blots were incubated with secondary antibody conjugated with horse radish peroxidase (1:5000 in TBST and 1% BSA) for 2 h. All used antibodies were obtained from cell signalling (UK): anti ac.H3K9 […]
anti ac.α-tubulin (#5335), anti α-tubulin (#2125) and anti rabbit-HRP (#7074). Target protein bands were detected with Clarity Western ECL Substrate (Biorad, Germany) and recorded at an Advanced Fluorescence Imager (INTAS, Germany). Band intensity was related to internal standard of the TGX Stain-Free gels as loading control.
In order to verify the conformations of Z-15c and Z-15f obtained from our molecular docking experiments, a two-dimensional dihedral analysis was performed using MOE with 3-(2-phenyldiazenyl)-pyridine as reference compound. Both dihedrals were rotated by 360° in 5° steps. At each step, the potential energy was calculated with AMBER force field parameters and AM1-BCC partial charges applied. The diazenyl double bond of both compounds is nearly […]

[4] = 50 % DMSO (v/v) in assay buffer
[5] = 90 % DMSO (v/v) in assay buffer

Row | Compound | melting point | E/Z [%] PSD @ 365 nm [2] | E/Z [%] PSD @ 452 nm [2] | λΔ/max absorption maximum at thermal equilibrium ([1]; 50 % DMSO (v/v)) | k of thermal Z→E isomerization (non-linear regression) [1, 4] | other results
1 | NC(=O)c1cncc(/N=N/c2c(O)ccc3ccccc23)c1 [7 c] | 260 °C |  |  |  |  | 
2 | Cc1cc(/N=N/c2cncc(C(N)=O)c2)cc(C)c1N [7 f] | 255 °C |  |  |  |  | 
3 | CC(=O)Nc1c(C)cc(/N=N/c2cncc(C(N)=O)c2)cc1C [9 a] |  |  |  |  |  | λΔ/max absorption maximum at thermal equilibrium ([1]; 5 % DMSO (v/v)): 329 nm; k of thermal Z→E isomerization (non-linear regression) ([1]; 5 % DMSO (v/v) in assay buffer): 0.1176
4 | CCCC(=O)Nc1c(C)cc(/N=N/c2cncc(C(N)=O)c2)cc1C [9 b] |  | 10/90 | 86/14 |  |  | λΔ/max absorption maximum at thermal equilibrium ([1]; 5 % DMSO (v/v)): 332 nm; k of thermal Z→E isomerization (non-linear regression) ([1]; 5 % DMSO (v/v) in assay buffer): 0.08608
5 | CCCCCC(=O)Nc1c(C)cc(/N=N/c2cncc(C(N)=O)c2)cc1C [9 c] |  | 9/91 | 87/13 | 339 nm | 0.043 | 
6 | CCCCCCCC(=O)Nc1c(C)cc(/N=N/c2cncc(C(N)=O)c2)cc1C [9 d] |  | 9/91 | 88/12 |  |  | λΔ/max absorption maximum at thermal equilibrium ([1]; 90 % DMSO (v/v)): 345 nm; k of thermal Z→E isomerization (non-linear regression) [1, 5]: 0.03293
7 | CCCCCCCCCC(=O)Nc1c(C)cc(/N=N/c2cncc(C(N)=O)c2)cc1C [9 e] |  | 10/90 | 90/10 |  |  | λΔ/max absorption maximum at thermal equilibrium ([1]; 90 % DMSO (v/v)): 344 nm; k of thermal Z→E isomerization (non-linear regression) [1, 5]: 0.03173
8 | CCCCCCCCCCCC(=O)Nc1c(C)cc(/N=N/c2cncc(C(N)=O)c2)cc1C [9 f] |  | 10/90 | 91/9 |  |  | λΔ/max absorption maximum at thermal equilibrium ([1]; 90 % DMSO (v/v)): 346 nm; k of thermal Z→E isomerization (non-linear regression) [1, 5]: 0.03286
9 | CCCCCCCCCCCCCC(=O)Nc1c(C)cc(/N=N/c2cncc(C(N)=O)c2)cc1C [9 g] | 254.1 °C | 14/86 | 87/13 |  |  | λΔ/max absorption maximum at thermal equilibrium ([1]; 90 % DMSO (v/v)): 345 nm; k of thermal Z→E isomerization (non-linear regression) [1, 5]: 0.02709
10 | Cc1cc(/N=N/c2cncc(C(N)=O)c2)cc(C)c1NC(=O)c1ccccc1 [9 h] | 267 °C (dec.) | 14/86 | 91/9 | 337 nm | 0.9524 | 
11 | Cc1cc(/N=N/c2cncc(C(N)=O)c2)cc(C)c1NC(=O)c1ccc(F)cc1 [9 i] |  | 12/88 | 91/9 | 337 nm | 1.193 | 
12 | Cc1cc(/N=N/c2cncc(C(N)=O)c2)cc(C)c1NC(=O)c1ccc(-c2cccs2)cc1 [9 j] | 306.5 °C (dec.) | 29/71 | 93/7 | 330 nm | 1.212 | 
13 | Cc1cc(/N=N/c2cncc(C(N)=O)c2)cc(C)c1NC(=O)C12CC3CC(CC(C3)C1)C2 [9 k] |  | 14/86 | 89/11 | 339 nm | 0.1022 | 
14 | CC(C)(C)OC(=O)c1ccc(/N=N/c2cncc(C(N)=O)c2)cc1 [15 a] |  | 31/69 | 94/6 | 325 nm | 0.003905 | PSD after 365 nm radiation, share of the Z isomer [2]: 60–70%
15 | CC(C)(C)OC(=O)Cc1ccc(/N=N/c2cncc(C(N)=O)c2)cc1 [15 b] |  | 6/94 | 90/10 | 332 nm | 0.02959 | 
16 | NC(=O)c1cncc(/N=N/c2ccc(Br)cc2)c1 [15 d] |  | 9/91 | 91/9 |  |  | λΔ/max absorption maximum at thermal equilibrium ([1]; 5 % DMSO (v/v)): 332 nm; k of thermal Z→E isomerization (non-linear regression) ([1]; 5 % DMSO (v/v) in assay buffer): 0.003156
17 | CCCCNC(=O)c1ccc(/N=N/c2cncc(C(N)=O)c2)cc1 [15 e] |  | 40/60 | 89/11 | 326 nm | 0.002728 | PSD after 365 nm radiation, share of the Z isomer [2]: 60–70%
18 | NC(=O)c1cncc(/N=N/c2ccc(C#CCCCCO)cc2)c1 [15 g] |  | 25/75 | 89/11 | 355 nm | 0.0139 | 
19 | CC(C)(O)C#Cc1ccc(/N=N/c2cncc(C(N)=O)c2)cc1 [15 h] | 223.3 °C | 23/77 | 92/8 | 350 nm | 0.00906 | 
20 | NC(=O)c1cncc(OCc2cccc(/N=N/c3ccc(OCc4ccccc4)cc3)c2)c1 [20 a] |  | 4/96 | 80/20 | 352 nm | 0.0207 | acetylation level of α-tubulin [3]: none of the compounds influenced; activity regarding the examined substrates (acetylation) [3]: did not exert any activity; expression of total histone H3 [3]: no effect; expression of total α-tubulin protein [3]: no effect; total H4 [3]: slight increase
21 | NC(=O)c1cncc(OCc2cccc(/N=N/c3ccc(F)cc3)c2)c1 [20 b] | 202.1 °C | 2/98 | 83/17 | 324 nm |  | 
22 | C#Cc1ccc(/N=N/c2cccc(COc3cncc(C(N)=O)c3)c2)cc1 [20 c] |  |  |  | 340 nm |  | 
